Data published in the supplement of paper PMC10883282.
± gives the standard deviation of the averaged measurements.

How the values were obtained:
Experiment in all cases: relative viability vs DMSO control (72 h) (fraction); higher = more viable cells
KHOS-240S = system: KHOS-240S
In short: (§1)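 Relative viability was measured with ATPLite and expressed as percent growth, averaged across up to triplicate wells. Sarcoma cell lines had been seeded in 384-well plates to reach 80–90% confluence, dosed after 24 h, and incubated 72 h at 37 °C, 5% CO2. All data were rescaled on a scale where 1 is full and 0 is none.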

RD = system: RD
In short: as §1

SYO-1 = system: SYO-1
In short: as §1

MES-SA = system: MES-SA
In short: as §1

SW1353 = system: SW1353
In short: as §1

SW982 = system: SW982
In short: as §1

VA-ES-BJ = system: VA-ES-BJ
In short: as §1

HT1080 = system: HT1080
In short: as §1

SK-LMS-1 = system: SK-LMS-1
In short: as §1

RD-ES = system: RD-ES
In short: as §1

G401 = system: G401
In short: as §1

SK-ES-1 = system: SK-ES-1
In short: as §1

Cc1cc2cc(Oc3ccnc(Nc4cccc(CS(=O)(=O)NCCN(C)C)c4)n3)ccc2[nH]1 [Sulfatinib]
Conditions | relative viability
G401, 0.00017 µM | 1.024 ± 0.0098
G401, 0.00051 µM | 0.976 ± 0.047
G401, 0.00152 µM | 1.01 ± 0.043
G401, 0.00457 µM | 0.995 ± 0.046
G401, 0.01372 µM | 1.04 ± 0.05
G401, 0.04115 µM | 0.993 ± 0.033
G401, 0.1235 µM | 0.983 ± 0.011
G401, 0.3704 µM | 1.02 ± 0.023
G401, 1.111 µM | 0.969 ± 0.025
G401, 3.333 µM | 0.536 ± 0.021
G401, 10 µM | 0.157 ± 0.0074
HT1080, 0.00017 µM | 1.023 ± 0.005
HT1080, 0.00051 µM | 0.983 ± 0.044
HT1080, 0.00152 µM | 0.997 ± 0.067
HT1080, 0.00457 µM | 1.03 ± 0.064
HT1080, 0.01372 µM | 1.03 ± 0.042
HT1080, 0.04115 µM | 1.03 ± 0.044
HT1080, 0.1235 µM | 1.01 ± 0.038
HT1080, 0.3704 µM | 1.044 ± 0.0027
HT1080, 1.111 µM | 0.969 ± 0.062
HT1080, 3.333 µM | 1.05 ± 0.017
HT1080, 10 µM | 0.878 ± 0.032
KHOS-240S, 0.00017 µM | 1.02 ± 0.035
KHOS-240S, 0.00051 µM | 1.02 ± 0.021
KHOS-240S, 0.00152 µM | 1.02 ± 0.03
KHOS-240S, 0.00457 µM | 1.03 ± 0.039
KHOS-240S, 0.01372 µM | 1.05 ± 0.021
KHOS-240S, 0.04115 µM | 1.02 ± 0.047
KHOS-240S, 0.1235 µM | 1.012 ± 0.004
KHOS-240S, 0.3704 µM | 0.961 ± 0.0099
KHOS-240S, 1.111 µM | 0.936 ± 0.018
KHOS-240S, 3.333 µM | 0.741 ± 0.036
KHOS-240S, 10 µM | 0.382 ± 0.025
MES-SA, 0.00017 µM | 0.911 ± 0.014
MES-SA, 0.00051 µM | 0.92 ± 0.031
MES-SA, 0.00152 µM | 0.913 ± 0.02
MES-SA, 0.00457 µM | 0.906 ± 0.021
MES-SA, 0.01372 µM | 0.925 ± 0.036
MES-SA, 0.04115 µM | 0.894 ± 0.015
MES-SA, 0.1235 µM | 0.9221 ± 0.0037
MES-SA, 0.3704 µM | 0.9312 ± 0.0049
MES-SA, 1.111 µM | 0.969 ± 0.013
MES-SA, 3.333 µM | 0.791 ± 0.056
MES-SA, 10 µM | 0.299 ± 0.026
RD, 0.00017 µM | 1.074 ± 0.0065
RD, 0.00051 µM | 1.09 ± 0.013
RD, 0.00152 µM | 1.09 ± 0.02
RD, 0.00457 µM | 1.123 ± 0.0062
RD, 0.01372 µM | 1.1 ± 0.046
RD, 0.04115 µM | 1.094 ± 0.0055
RD, 0.1235 µM | 1.12 ± 0.039
RD, 0.3704 µM | 1.09 ± 0.047
RD, 1.111 µM | 1.07 ± 0.038
RD, 3.333 µM | 0.981 ± 0.11
RD, 10 µM | 0.456 ± 0.029
RD-ES, 0.00017 µM | 1.02 ± 0.044
RD-ES, 0.00051 µM | 0.998 ± 0.035
RD-ES, 0.00152 µM | 1.01 ± 0.02
RD-ES, 0.00457 µM | 0.996 ± 0.024
RD-ES, 0.01372 µM | 1.023 ± 0.0082
RD-ES, 0.04115 µM | 1 ± 0.02
RD-ES, 0.1235 µM | 1 ± 0.031
RD-ES, 0.3704 µM | 1.01 ± 0.023
RD-ES, 1.111 µM | 0.992 ± 0.022
RD-ES, 3.333 µM | 0.87 ± 0.032
RD-ES, 10 µM | 0.579 ± 0.024
SK-ES-1, 0.00017 µM | 1.03 ± 0.072
SK-ES-1, 0.00051 µM | 1.03 ± 0.082
SK-ES-1, 0.00152 µM | 1.01 ± 0.032
SK-ES-1, 0.00457 µM | 1.03 ± 0.062
SK-ES-1, 0.01372 µM | 1.03 ± 0.044
SK-ES-1, 0.04115 µM | 1.05 ± 0.03
SK-ES-1, 0.1235 µM | 1.03 ± 0.071
SK-ES-1, 0.3704 µM | 1.03 ± 0.017
SK-ES-1, 1.111 µM | 1 ± 0.039
SK-ES-1, 3.333 µM | 0.859 ± 0.057
SK-ES-1, 10 µM | 0.455 ± 0.021
SK-LMS-1, 0.00017 µM | 1 ± 0.032
SK-LMS-1, 0.00051 µM | 1.07 ± 0.025
SK-LMS-1, 0.00152 µM | 1.01 ± 0.017
SK-LMS-1, 0.00457 µM | 1.04 ± 0.04
SK-LMS-1, 0.01372 µM | 1.04 ± 0.011
SK-LMS-1, 0.04115 µM | 1.03 ± 0.023
SK-LMS-1, 0.1235 µM | 1.03 ± 0.035
SK-LMS-1, 0.3704 µM | 0.986 ± 0.025
SK-LMS-1, 1.111 µM | 1.01 ± 0.013
SK-LMS-1, 3.333 µM | 0.924 ± 0.039
SK-LMS-1, 10 µM | 0.531 ± 0.02
SW982, 0.00017 µM | 1.04 ± 0.038
SW982, 0.00051 µM | 1.04 ± 0.03
SW982, 0.00152 µM | 1.05 ± 0.026
SW982, 0.00457 µM | 1.06 ± 0.043
SW982, 0.01372 µM | 1.04 ± 0.017
SW982, 0.04115 µM | 1.03 ± 0.012
SW982, 0.1235 µM | 1.06 ± 0.049
SW982, 0.3704 µM | 1.02 ± 0.059
SW982, 1.111 µM | 0.971 ± 0.025
SW982, 3.333 µM | 0.719 ± 0.018
SW982, 10 µM | 0.226 ± 0.0099
SW1353, 0.00017 µM | 0.936 ± 0.066
SW1353, 0.00051 µM | 0.911 ± 0.042
SW1353, 0.00152 µM | 0.925 ± 0.039
SW1353, 0.00457 µM | 0.941 ± 0.012
SW1353, 0.01372 µM | 0.975 ± 0.042
SW1353, 0.04115 µM | 0.922 ± 0.014
SW1353, 0.1235 µM | 0.964 ± 0.022
SW1353, 0.3704 µM | 0.931 ± 0.021
SW1353, 1.111 µM | 0.906 ± 0.027
SW1353, 3.333 µM | 0.845 ± 0.02
SW1353, 10 µM | 0.565 ± 0.023
SYO-1, 0.00017 µM | 0.943 ± 0.05
SYO-1, 0.00051 µM | 0.962 ± 0.079
SYO-1, 0.00152 µM | 0.945 ± 0.066
SYO-1, 0.00457 µM | 0.938 ± 0.059
SYO-1, 0.01372 µM | 0.9 ± 0.061
SYO-1, 0.04115 µM | 0.865 ± 0.045
SYO-1, 0.1235 µM | 0.805 ± 0.026
SYO-1, 0.3704 µM | 0.607 ± 0.054
SYO-1, 1.111 µM | 0.423 ± 0.037
SYO-1, 3.333 µM | 0.341 ± 0.021
SYO-1, 10 µM | 0.105 ± 0.02
VA-ES-BJ, 0.00017 µM | 1.03 ± 0.034
VA-ES-BJ, 0.00051 µM | 1.03 ± 0.04
VA-ES-BJ, 0.00152 µM | 1.02 ± 0.052
VA-ES-BJ, 0.00457 µM | 1.03 ± 0.057
VA-ES-BJ, 0.01372 µM | 1.02 ± 0.065
VA-ES-BJ, 0.04115 µM | 1.02 ± 0.065
VA-ES-BJ, 0.1235 µM | 1 ± 0.093
VA-ES-BJ, 0.3704 µM | 1.04 ± 0.087
VA-ES-BJ, 1.111 µM | 1.08 ± 0.039
VA-ES-BJ, 3.333 µM | 1.04 ± 0.053
VA-ES-BJ, 10 µM | 0.486 ± 0.0055
